Five compounds from patent publication US4552882A, “7-(1-Pyrrolyl) derivatives of 1-ethyl-1,4-dihydro-4-oxoquinoline-3-carboxylic acids and 1-ethyl-1,4-dihydro-4-oxo-1,8-naphthyridine-3-carboxylic acids and their use as antimicrobial agents” (Provesan, SA, priority 1983, dated 1985) can be followed below.

In brackets after ≈: the same amount, converted by molar mass.

Experiment in all cases: MIC in vitro
Format in all cases: cell-based

Assay [1] concerns Micrococus flavus ATCC 10240. The following applies: Micrococcus flavus, ATCC10240, Dextrose agar, 37° C., 20 hours. As to the method: (§1) (G. L. Daquet and Y. A. Chabbect, Techniques en bacteriologie (Bacteriological techniques), vol. 3, Flammarion Medecine Sciences, Paris, 1972 and W. B. Hugo and A. D. Rusell, Pharmaceutical Microbiology, Blackwell Scientific Publications, London, (1977)). Antibiotic medium no. 1 (seed agar) (Oxoid CM 327) Tryptone-soya broth (Oxoid CM 129) Ringer's physiological solution 1/4 (oxoid BR 52) Dextrose agar (BBL-11165) 0.1 N NaOH "Micrococcus flavus" ATCC 10240 Each of the microorganisms is seeded by streaking in tubes of Antibiotic medium No. 1 (seed agar), which are then incubated at 37° C. for 20 hours. Using a culture loop, the cultures are then seeded in tryptone-soyabroth and incubated at 37° C. for 20 hours. The culture obtained is diluted to 1/4 with Ringer's physiological solution, so as to obtain a standardized suspension of 10^7 -10^9 cfu/ml for each organism. Starting from a solution of 1,000 μg/ml in 0.1 N NaOH, each product is diluted in Dextrose agar (previously melted and maintained at 50° C.), with successive dilutions so as to obtain the following concentrations: 64--32--16--8--4--2--1--0.5--0.25--0.125 μg of derivative/ml medium. For each product, the solution of each concentration is subsequently distributed into Petri dishes 10 cm in diameter, with 10 ml of medium per dish and the same number of dishes as microorganisms to be tested. As soon as the medium has cooled, the dishes are seeded with the inoculations using 0.4 ml of inoculation per dish. They are spread with a Driglasky loop and the supernatant is removed. The seeded dishes are incubated at 37° C. for 20 hours.

For assay [2], the system named is Enterobacter aerogenes ATCC 15038. The following applies: Klebsiella aerogenes, ATCC15038, Dextrose agar, 37° C., 20 hours.
Excerpt: as §1, with “"Enterobacter aerogenes"” for “"Micrococcus flavus"”, “15038” for “10240”

The next assay deals with Proteus morganii CHSP 16. The conditions noted are these: Morganella morganii, CHSP16, Dextrose agar, 37° C., 20 hours. As for the experimental part:
as §1, with “"Proteus morganii" CHSP 16” for “"Micrococcus flavus" ATCC 10240”

As usually defined, the MIC is the least concentration at which growth counts as inhibited. Read a low MIC as inhibition by little substance. Turning to `CCn1cc(C(=O)O)c(=O)c2ccc(-n3cccc3)cc21` [Example 1, 7-(1-pyrrolyl)-1-ethyl-1,4-dihydro-4-oxo-3-quinolinecarboxylic acid], the results for the MIC (in assay [1]; in assay [2]; in the assay on Proteus morganii CHSP 16) were 16 µg/mL (≈ 56.7 µM), more than 64 µg/mL and 8 µg/mL (≈ 28.3 µM), respectively.

Take `CCn1cc(C(=O)O)c(=O)c2ccc(-n3cccc3)nc21` [Example 3, 1-ethyl-1,4-dihydro-4-oxo-7-(1-pyrrolyl)-1,8-naphthyridine-3-carboxylic acid]: the values for the MIC (in assay [1]; in assay [2]; with Proteus morganii CHSP 16) were 4 µg/mL (≈ 14.1 µM), more than 64 µg/mL and 8 µg/mL (≈ 28.2 µM), respectively.

Regarding `CCn1cc(C(=O)O)c(=O)c2cc(F)c(-n3cccc3)nc21` [Example 4, 1-ethyl-1,4-dihydro-4-oxo-6-fluoro-7-(1-pyrrolyl)-1,8-naphthyridine-3-carboxylic acid], the MIC stood at 1 µg/mL (≈ 3.32 µM) in assay [1], 4 µg/mL (≈ 13.3 µM) in assay [2] and 4 µg/mL (≈ 13.3 µM) against Proteus morganii CHSP 16.

For the compound `CCn1cc(C(=O)O)c(=O)c2cc(F)c(-n3cccc3)cc21` [Example 2, 6-fluoro-7-(1-pyrrolyl)-1-ethyl-1,4-dihydro-4-oxo-3-quinolinecarboxylic acid], the MIC was 8 µg/mL (≈ 26.6 µM) in assay [1], 8 µg/mL (≈ 26.6 µM) in assay [2] and 2 µg/mL (≈ 6.66 µM) in the assay on Proteus morganii CHSP 16.

Regarding `CCn1cc(C(=O)O)c(=O)c2cnc(N3CCNCC3)nc21` [Pipemidic acid, reference compound], the minimum inhibitory concentration (MIC) in assay [1] was more than 64 µg/mL; in assay [2] it was 32 µg/mL (≈ 105 µM); against Proteus morganii CHSP 16 it was 8 µg/mL (≈ 26.4 µM).
